Assays:
[1] = system: 48 rhinovirus types and coxsackievirus A21, B3, enterovirus 70 and echovirus 11; conditions: cited from earlier work
[2] = cited from earlier work; for bioavailability / metabolization and excretion: in vivo
[3] = system: rhinoviruses and enteroviruses; conditions: cited from earlier work
[4] = cited from earlier work
[5] = in vivo; cited from earlier work
[6] = cited from earlier work; remark: listed apart in the source
HRV A29 = HRV A29 CPE inhibition assay; assay type: cell-based; conditions: Human rhinovirus sp.; HRV A29, cytopathic effect inhibition
Experimental: (§1) Bioactivity of the Compounds of the Invention was Determined Using the Following Methods. Determination of Drug Efficacy Against Picornaviruses Using Cytopathic Effect (CPE) Inhibition Assay
(§2) In the assay, HeLa (human cervical cancer cells), MRC-5 (human fetal lung fibroblast cells), and RD cells (derived from human rhabdomyosarcoma) were employed. For comparison, ribavirin (Riv), Pleconaril (pleco), and […] (BTA) were used as controls. Reagents were dissolved at a concentration of 10-40 mg/ml in 100% dimethyl sulfoxide (DMSO). Water-soluble reagents were dissolved in PBS (−) solution and stored at −20° C. On the day of the experiment, they were used in 3 fold to 5 fold concentrations in such a manner that the concentration of dimethyl sulfoxide in each well was between 0.5% and 1%.
(§3) Pharmaceutical efficacy was determined using a virus-induced cytopathic effect (CPE) inhibition assay. In this regard, after cells suitable for viruses were grown in 96-well plates, dilutions of viruses in DME supplemented with 2% FBS (DME/2% FBS) or MEM supplemented with 2% FBS (MEM/2% FBS) were inoculated in an amount of […] with a concentration corresponding to 100 CCID50 (50% cell culture infective dose) into each well of the plates, and incubated for 30 min-1 hr at 33° C. or 37° C. to allow the viruses to adsorb onto the cells. The culture medium was removed before aliquots of drug dilutions with various concentrations were added in an amount of 100 μl to each well. While HRV (human rhinovirus) was grown at 33° C., the other viruses were incubated in a 37° C. CO2 incubator for 2-3 days. Alternatively, the cells were cultured for 2-3 days without removal of the medium after they were added with 50 μl of each drug dilution having a 2-fold higher concentration and then with 50 μl of the virus dilution. Viruses were incubated in host HeLa cells at 37° C. for 2-3 days in DME/2% or MEM/2% FBS.
(§4) For HeLa cells, the drugs were measured for EC50 (50% maximal effective concentration), which is the concentration of a drug inducing a response halfway between the baseline and maximum, using an MTT assay. With regard to RD and MRC-5 cells, CPE was determined using FDA (Fluorescein diacetate) or MTT. In order to determine the effect of drug toxicity on efficacy results, at the time of inoculation with the virus, mock-infection was also included. A virus-free medium was added to a cell culture, which was then subjected to the same treatment as the mock-infected cells inoculated with the virus. That is, the medium was removed after one hour of incubation, and dilutions of drugs in the medium were added once more. Following incubation for 2-3 days, the cells were observed under a microscope and the drugs were determined for CC50 (50% cytotoxic concentration) at which 50% of the cells were killed, using an MTT assay in which counts of viable cells in mock-infected wells containing drugs were compared to those of viable cells in control wells containing no drugs. In an FDA hydrolysis assay, FDA was added to each well after removal of the medium, and incubated for 20-30 min before fluorescence intensity was measured using a spectrofluorometer to determine CPE in the same manner as in MTT.
(§5) In addition, antiviral effects can be calculated using Mathematical Formula 2 below: Antiviral Effect=[A(Drug/Virus)−A(Virus Control)/A(Cell control)−A(Virus Control)]
(§6) If the survival rate is 100%, its antiviral effect is 100% whereas if the survival rate is 0%, its antiviral effect is none. […]
(§7) Specifically, cells grown to confluence in 96-well plates were infected with 100 50% cell culture infected doses (CCID50) of virus. After an adsorption period of 2 hrs at 37° C., the virus was removed and serial dilutions of the compounds were added. […] After removal of the medium, 90 μl of a culture medium and 10 μl of MTS-phenazine methosulfate (Promega, Leiden, The Netherlands) were added to each well. […]

HRV A16 = HRV A16 CPE inhibition assay; assay type: cell-based; conditions: Human rhinovirus sp.; HRV A16, cytopathic effect inhibition
Experimental: as §1, §2, §3, §4, §5, §6, §7

HRV A1B = HRV A1B CPE inhibition assay; assay type: cell-based; conditions: Human rhinovirus sp., cytopathic effect inhibition, read-out: HRV A1B_CPE (EC50 μM)
Experimental: as §1, §2, §3, §4, §5, §6, §7

[7] = Cytotoxicity (CC50) in mock-infected cells, MTT assay; assay type: cell-based; conditions: human, HeLa cells (mock-infected), 50% cytotoxic concentration, read-out: CYTOTOX (CC50 μM)
Experimental: as §4
That is, the survival rate (% survival) of mock-infected cells for cytotoxicity measurement was calculated using the Mathematical Formula 1 below: Cell Drug=Survival by [A(Drug)−A(Background solution)/A(Cell control)−A(Background×100% Solution)]
While 100% cell survival means no cytotoxicity of the drug, the highest cytotoxicity is reflected by 0% cell survival. The 50% cytotoxic concentration was defined as the concentration required to reduce the cell number by 50%. This concentration of the drug is represented as CC50. Higher values mean lower cytotoxicity. […]
In Mathematical Formulae 3 and 4 above, • OD (CC) represents the OD of the background cell culture that is neither induced by a virus nor treated by chemical, • OD (VC) represents the OD of the control cell culture that is induced by a virus but not treated by chemical, • OD (Virus+Compound) represents the OD of the cell culture infected by a virus that has been treated with a concentrated compound, • OD (Compound) represents the OD of the cell culture that has been treated with a concentrated compound only, and • OD (Blank) represents the OD of the well to which only the cell culture has been added.
The effective concentration (EC50) represents the concentration of a drug at which 50% of cells are allowed to survive by CPE of an induced virus, and the cytotoxicity concentration (CC50) represents the concentration of a drug at which a compound has killed 50% of cells, and they were calculated by the logarithmic interpolation.

C15_C3 REPLICON = experiment: C15_C3 replicon assay; assay type: cell-based
HRV B14 = HRV B14 CPE inhibition assay; assay type: cell-based; conditions: Human rhinovirus sp.; HRV B14, cytopathic effect inhibition
Experimental: as §1, §2, §3, §4, §5, §6, §7

## CCOC(=O)/C=C/[C@H](C[C@@H]1CCNC1=O)NC(=O)[C@@H](CC(=O)[C@@H](NC(=O)c1cc(C)on1)C(C)C)Cc1ccc(F)cc1 [AG 7088]
[1]
  concentration range of effect in the cell culture: nanomolar concentration range

## Cc1cc(CCCOc2c(C)cc(-c3noc(C(F)(F)F)n3)cc2C)on1 [Pleconaril]
[2]; oral
  oral bioavailability: very good oral bioavailability

## Cc1cc(CCCCCCCOc2ccc(C3=NCCO3)cc2)on1 [disoxaril]
[3]
  antiviral effects in the cell culture: very good antiviral effects
[2]
  bioavailability: low bioavailability
  metabolization and excretion: rapid metabolization and excretion

## CC(C)S(=O)(=O)n1c(N)nc2ccc(/C(=N/O)c3ccccc3)cc21 [Enviroxime]
[4]
  pharmacokinetics in clinical studies: bad pharmacokinetics
  therapeutic effects in clinical studies: insignificant or few therapeutic effects

## CCOC(=O)c1ccc(OCCC2CCN(c3ccc(C)nn3)CC2)cc1 [pirodavir]
[3]
  antiviral effects in the cell culture: very good antiviral effects

## Cc1cc(CCCCCOc2c(Cl)cc(C3=NCCO3)cc2Cl)on1 [WIN 54954]
[5]
  side effects: skin rash
[2]
  metabolization and excretion: rapid metabolization and excretion

## CCC(=O)C(CCCCCCOc1ccc(OC)cc1Cl)C(=O)CC [Arildone]
[6]
  solubility: poor solubility
[3]
  antiviral effects in the cell culture: very good antiviral effects
[2]
  bioavailability: low bioavailability

## Cc1cc(S(=O)(=O)N2CCN(C)CC2)[nH]c1C(=O)N[C@]12C(=O)c3c(N)cccc3[C@@]1(O)Oc1cc([C@H]3C[C@@H]3C)ccc12 [Example 14, N-((4bR,9bR)-1-amino-4b-hydroxy-7-((1S,2S)-2-methylcyclopropyl)-10-oxo-4b,10-dihydro-9bH-indeno[1,2-b]benzofuran-9b-yl)-3-methyl-5-((4-methylpiperazin-1-yl)sulfonyl)-1H-pyrrole-2-carboxamide]
HRV A29
  EC50: 0.03 µM
HRV A16
  EC50: 0.023 µM
HRV A1B
  EC50: 0.016 µM
[7]
  CC50: 21.9 µM
C15_C3 REPLICON
  EC50: 0.516 µM
HRV B14
  EC50: 0.016 µM

Source: patent publication US12286423B2, “Antiviral 1,3-di-oxo-indene compounds” (Novartis AG, priority 2020, dated 2025)
